Entries after “also recorded” stand apart in the source; their conditions may differ.
What was measured:
[1] = biological target: T1, ACS2P1-biotin binding to fetuin (Bos taurus, UniProt P12763); test: biochemical; conditions: peptide μM: ACS2P1 4.1, S2P2 42.5, SPYGRC 5520, S2P3 22.4, S2P4 6.0, S2P6 319, S3P1 1142, S3P2 934, S3P3 16.1, S3P4 6.4, S3P5 22.5; ACS2P1-biotin 0.1 μg; − inhibition, + enhancement
T1 construct: purchased Sigma Chemical Company
T1 sequence (P12763 19-359): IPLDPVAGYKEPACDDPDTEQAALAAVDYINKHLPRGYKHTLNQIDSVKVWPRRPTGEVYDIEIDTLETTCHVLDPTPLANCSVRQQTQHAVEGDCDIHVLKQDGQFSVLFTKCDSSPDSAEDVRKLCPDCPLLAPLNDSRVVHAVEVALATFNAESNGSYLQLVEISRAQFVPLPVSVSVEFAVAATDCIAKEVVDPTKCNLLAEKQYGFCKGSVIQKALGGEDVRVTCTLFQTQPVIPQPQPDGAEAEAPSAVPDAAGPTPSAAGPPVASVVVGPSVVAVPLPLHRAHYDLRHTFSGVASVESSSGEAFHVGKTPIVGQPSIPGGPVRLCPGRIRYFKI

[2] = biological target: T2, MAL-biotin binding to fetuin (Bos taurus, UniProt P12763); test: MAL-biotin binding to fetuin, binding inhibition assay; parameters: species or system Maackia amurensis; conditions: peptide mg/mL: S2PL 1.2, ACS2P1 1.0, S2(14-2.3) 1.0, S2P2 1.1, S2P3 0.51, S2P4 0.98, S2P6 0.85, S3P1 3.2, S3P2 3.1, S3P3 4.5, S3P4 3.3, S3P5 0.48, S3P9a 1.7, SPYGRC 4.4, S2(WGA) 1.0, WGA (62-73) 1.0; + enhancement, − inhibition
T2 construct: purchased Sigma Chemical Company (fetuin); Boehringer Mannheim (MAL-biotin)
T2 sequence (P12763 19-359): T1 sequence (P12763 19-359)
Description: (§1) Peptides ranging in concentration from 0.5 to 4.5 mg/ml in PBS (40 μl) were added to each well and PT-biotin (10 μl containing 10 ng in PBS) was then added to the microtiter wells. […] Horseradish peroxidase-conjugated avidin (100 μl, 1/3000 dilution in PBST to a concentration of 0.3 μg/ml) was then added to the wells, and the plates were incubated at ambient temperature for 1 hour. […] Color development was recorded at 405 nm using a Titertek Multiskan MC plate reader. […] Binding assays for each peptide were done in duplicate. Binding inhibition experiments utilizing SNA-, WGA-, and MAL-biotin were performed as described above using 10 ng of each biotinylated lectin in PBS.
(§2) Binding assays for each inhibitor concentration were done at least in duplicate, and the average value varied less than 15%.

[3] = biological target: T3, PT-biotin binding to asialofetuin (Bos taurus, UniProt P12763); test: PT-biotin binding to asialofetuin, binding inhibition assay; parameters: species or system Bordetella pertussis; conditions: for Percent Changes in Binding Activity PT/asialo-fetuin: peptide mg/mL: S2PL 1.2, ACS2P1 1.0, S2P2 1.1, S2P3 0.51, S2P4 0.98, S2P6 0.85, S3P1 3.2, S3P2 3.1, S3P3 4.5, S3P4 3.3, S3P5 0.48, SPYGRC 4.4, + enhancement, − inhibition
T3 construct: made in house
T3 sequence (P12763 19-359): T1 sequence (P12763 19-359)
Description: as §1, §2

[4] = biological target: T4, WGA-biotin binding to fetuin (Bos taurus, UniProt P12763); test: biochemical; conditions: for Percent Changes in Binding Activity WGA/fetuin: peptide mg/mL: S2PL 1.2, ACS2P1 1.0, S2(14-2.3) 1.0, S2P2 1.1, S2P3 0.51, S2P4 0.98, S2P6 0.85, S3P1 3.2, S3P2 3.1, S3P3 4.5, S3P4 3.3, S3P5 0.48, SPYGRC 4.4, S2(WGA) 1.0, WGA (62-73) 1.0, + enhancement, − inhibition
T4 sequence (P12763 19-359): T1 sequence (P12763 19-359)
Description: (§3) The solution was removed by aspiration and replaced with 100 μl of 1% BSA in PBS containing 0.05% Tween 20 (PBST). After incubation for 2-4 hours at room temperature, the microtiter wells were washed four times with 300 μl of PBST. Peptides ranging in concentration from 0.5 to 4.5 mg/ml in PBS (40 μl) were added to each well and PT-biotin (10 μl containing 10 ng in PBS) was then added to the microtiter wells. After incubating for 1 hour, the binding reaction was stopped by aspirating the solutions and the plate was washed with PBST (300 μl). Horseradish peroxidase-conjugated avidin (100 μl, 1/3000 dilution in PBST to a concentration of 0.3 μg/ml) was then added to the wells, and the plates were incubated at ambient temperature for 1 hour. After washing the wells as described above, the substrate solution [1 mM ABTS in 5 mM citrate buffer, pH 4.2, containing 0.1% hydrogen peroxide, v/v) was added and the plates were incubated for 30 minutes. Color development was recorded at 405 nm using a Titertek Multiskan MC plate reader. Maximum binding was determined in the absence of peptide, and background binding was measured in wells coated with BSA only. Binding assays for each peptide were done in duplicate. Binding inhibition experiments utilizing SNA-, WGA-, and MAL-biotin were performed as described above using 10 ng of each biotinylated lectin in PBS.

[5] = biological target: T5, SNA-biotin binding to fetuin (Bos taurus, UniProt P12763); test: biochemical; conditions: peptide mg/mL: S2PL 1.2, ACS2P1 1.0, S2(14-2.3) 1.0, S2P2 1.1, S2P3 0.51, S2P4 0.98, S2P6 0.85, S3P1 3.2, S3P2 3.1, S3P3 4.5, S3P4 3.3, S3P5 0.48, S3P9a 1.7, SPYGRC 4.4, S2(WGA) 1.0, WGA (62-73) 1.0; + enhancement, − inhibition
T5 sequence (P12763 19-359): T1 sequence (P12763 19-359)
Description: as §3

[6] = biological target: T6, ACS2P1-biotin binding to asialofetuin (Bos taurus, UniProt P12763); test: Screening of S2 and S3 peptides for inhibition of ACS2P1-biotin binding to asialofetuin; conditions: peptide μM: ACS2P1 4.1, S2P2 42.5, SPYGRC 5520, S2P3 22.4, S2P4 6.0, S2P6 319, S3P1 1142, S3P2 934, S3P3 16.1, S3P4 6.4, S3P5 22.5; ACS2P1-biotin 0.1 μg; − inhibition, + enhancement
T6 construct: made in house
T6 sequence (P12763 19-359): T1 sequence (P12763 19-359)

[7] = biological target: T7, PT-biotin binding to fetuin (Bos taurus, UniProt P12763); test: PT-biotin binding to fetuin, binding inhibition assay; parameters: species or system Bordetella pertussis; conditions: for Percent Changes in Binding Activity PT/fetuin: peptide mg/mL: S2PL 1.2, ACS2P1 1.0, S2(14-2.3) 1.0, S2P2 1.1, S2P3 0.51, S2P4 0.98, S2P6 0.85, S3P1 3.2, S3P2 3.1, S3P3 4.5, S3P4 3.3, S3P5 0.48, S3P9a 1.7, SPYGRC 4.4, S2(WGA) 1.0, WGA (62-73) 1.0, + enhancement, − inhibition
T7 construct: purchased Sigma Chemical Company (fetuin); Connaught Center for Biotechnology Research (PT)
T7 sequence (P12763 19-359): T1 sequence (P12763 19-359)
Description: as §1, §2

| Substance | Percent Change in Binding Activity Fetuin [1] [%] | Percent Changes in Binding Activity MAL/fetuin [2] | effect on PT-biotin binding to asialofetuin, in words [3] | Percent Changes in Binding Activity PT/asialo-fetuin [3] | IC50 PT-b (asialofetuin) ([3]; wells coated with 3 μg/ml asialofetuin, 2-fold dilutions of peptide in PBS) | Percent Changes in Binding Activity WGA/fetuin [4] | Percent Changes in Binding Activity SNA/fetuin [5] | Percent Change in Binding Activity Asialofetuin [6] | Percent Changes in Binding Activity PT/fetuin [7] | IC50 [4] [µM] | IC50 [7] [µM] | effect on PT-biotin binding to fetuin, in words [7] | enhancement of PT-biotin binding to fetuin relative to control experiments in the absence of peptide ([7]; initial peptide screening) [fold] |
| --- | --- | --- | --- | --- | --- | --- | --- | --- | --- | --- | --- | --- | --- |
| CITTIYKTGQPAADHYYSKVTA [Peptide S3P3] | −13 ± 16 | +13 ± 15% | reduce binding of PT to asialofetuin only; also recorded: inhibit PT-biotin's interaction with asialofetuin in a concentration-dependent manner | −28 ± 7% | above the solubility limits of the peptide in PBS | +6 ± 3% | +3 ± 0% | −10 ± 11% | +19 ± 67% |  |  |  |  |
| H-SQYGYCGFGAEY-OH [WGA (62-73)] |  | −1 ± 4% |  |  |  | −9 ± 1% | −3 ± 2% |  | −32 ± 5% | 3400 | 1500 |  |  |
| PQEQITQHGSPYGRC [Peptide S2P1] |  | +8 ± 4% |  | +113(1) Percent |  | −18 ± 2% | −5 ± 1% |  | +85 ± 4% |  |  | enhancement of binding of PT to fetuin | ~2 |
| PQEQITQHGSQYGYC [S2 (WGA)] |  | +22 ± 3% |  |  |  | −4 ± 3% | 0 ± 1% |  | +79 ± 15% |  |  |  |  |
| TQHGSPYGRC [S2 (14-23)] |  | +32 ± 1% |  |  |  | +7 ± 1% | +1 ± 2% |  | +68 ± 9% |  |  |  |  |
| YDGKYWSMYSRLRKMLY [Peptide S2P4] | −8 ± 16 | +2(1) Percent |  | −3(1) Percent |  | +15 ± 1% | +3(1) Percent | +2 ± 4% | +14 ± 22% |  |  |  |  |
